Test results from US20080064682A1, “Pyrazole Derivatives” (DAIICHI PHARMACEUTICAL CO., LTD., priority 2004, published 2008).
Read-outs that look alike come from different tables or passages of the source.

Tests used:
[1] = system: collagen-induced platelet aggregation; details: background art, cited from earlier work
[2] = system: collagen-induced platelet aggregation; experiment: Platelet aggregation-inhibitory action (collagen-induced aggregation in platelet rich plasma); format: cell-based; details: human PRP, 37° C., read-out: Inhibition of collagen-induced platelet aggregation, IC50
Experimental: The blood was centrifuged at 180×g for 10 minutes to separate platelet rich plasma (PRP) from the blood. Upper layer PRP was removed, and the lower layer was centrifuged at 1600×g for 10 minutes, to thereby recover the upper layer platelet poor plasma (PPP). A solution (1 μL) of compound of the present invention was added to PRP (200 μL), and the mixture was allowed to stand at 37° C. for 2 minutes. Subsequently, collagen (2 μL) was added to the resultant mixture so as to induce platelet aggregation. Percent platelet aggregation was measured using PAM-12C (SSR Engineering). Optical transmittance of PPP was regarded as an indicator of 100% aggregation. Percent platelet aggregation values of the respective compounds were determined at different concentrations. IC50 values were calculated.

Cyclooxygenase-1 (COX-1) = target: T1, Cyclooxygenase-1 (COX-1) (Ovis aries, UniProt P05979); experiment: COX Inhibitor Screening Assay Kit, COX-1 (PGF2α by ELISA); format: biochemical; details: 50 μM compound; read-out: Inhibitory effect against COX-1 at 50 μM (% inhibition)
T1 construct: purchased Cayman Chemical Company 560101 and 560121
T1 sequence (P05979 25-600): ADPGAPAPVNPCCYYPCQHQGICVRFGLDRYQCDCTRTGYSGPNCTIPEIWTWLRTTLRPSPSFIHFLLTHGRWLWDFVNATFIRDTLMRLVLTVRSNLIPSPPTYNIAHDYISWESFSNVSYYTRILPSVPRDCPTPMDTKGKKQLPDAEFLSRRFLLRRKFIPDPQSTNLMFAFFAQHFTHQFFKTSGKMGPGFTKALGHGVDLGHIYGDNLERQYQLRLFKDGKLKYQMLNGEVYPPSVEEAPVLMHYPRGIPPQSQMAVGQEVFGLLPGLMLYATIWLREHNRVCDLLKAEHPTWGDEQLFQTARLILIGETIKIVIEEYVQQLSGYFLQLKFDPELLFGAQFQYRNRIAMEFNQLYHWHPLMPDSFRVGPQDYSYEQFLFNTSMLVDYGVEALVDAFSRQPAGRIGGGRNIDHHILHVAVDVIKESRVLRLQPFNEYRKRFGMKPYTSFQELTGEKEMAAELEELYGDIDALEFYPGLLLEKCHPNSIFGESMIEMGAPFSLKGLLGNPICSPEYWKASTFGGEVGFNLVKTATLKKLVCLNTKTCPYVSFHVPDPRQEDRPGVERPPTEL
Experimental: (§1) COX-1 inhibiting activity and COX-2 inhibiting activity of inventive compounds produced in some of the Examples herein were measured by use of a COX Inhibitor Screening Assay Kit (product of Cayman Chemical Company, Catalog Nos. 560101 and 560121).
(§2) Before starting the measurement, a reaction buffer, heme, arachidonic acid, SnCl2, EIA buffer, washing buffer, prostaglandin (PG) screening EIA standard, PG screening acetylcholine esterase (AchE), tracer ([…]), and PG screening EIA antiserum were prepared ready for use.
(§3) Production of PGF in the Presence of COX-1 or COX-2
A reaction mixture containing a compound of the present invention from the Examples (50 μM) and COX-1 or COX-2 was allowed to stand at 37° C. for 10 minutes. Arachidonic acid (10 μL) was added thereto, and the resultant mixture was further allowed to stand at 37° C. for 2 minutes. 1N-Hydrochloric acid (50 μL) was added to the reaction mixture, to thereby stop the reaction. SnCl2 solution (100 μL) was added thereto, and the resultant mixture was allowed to stand at room temperature for 5 minutes.
(§4) (2) Quantitative Determination of PGF2α Using ELISA
Antiserum (rabbit anti-PGF2α antibody, 50 μL) was added to the wells of a 96-well plate that had been coated with mouse anti-rabbit IgG. A solution of PGF2α-containing mixture obtained above (2000-fold dilution, 50 μL) and an AchE tracer (50 μL) were sequentially added to each well, and the mixture was allowed to stand at room temperature for 18 hours. The wells were washed 5 times with the washing buffer to remove an excessive AchE tracer, and an Ellman reagent (200 μL) was added. After keeping the plate in a dark room for 60 minutes, absorbance was measured at 405 nm.
(3) Calculation of Inhibitory Activity of the Compounds of the Present Invention
(§5) A calibration curve was obtained by use of a PG screening EIA standard, and the production amount of PGF2α was determined from the absorbance Percent inhibition against COX-1 or COX-2 in the presence of a 50 μM of the compound was calculated.

Cyclooxygenase-2 (COX-2) = target: T2, Cyclooxygenase-2 (COX-2) (Homo sapiens, UniProt P35354); experiment: COX Inhibitor Screening Assay Kit, COX-2 (PGF2α by ELISA); format: biochemical; details: 50 μM compound; read-out: Inhibitory effect against COX-2 at 50 μM (% inhibition)
T2 construct: purchased Cayman Chemical Company 560101 and 560121
T2 sequence (P35354 18-604): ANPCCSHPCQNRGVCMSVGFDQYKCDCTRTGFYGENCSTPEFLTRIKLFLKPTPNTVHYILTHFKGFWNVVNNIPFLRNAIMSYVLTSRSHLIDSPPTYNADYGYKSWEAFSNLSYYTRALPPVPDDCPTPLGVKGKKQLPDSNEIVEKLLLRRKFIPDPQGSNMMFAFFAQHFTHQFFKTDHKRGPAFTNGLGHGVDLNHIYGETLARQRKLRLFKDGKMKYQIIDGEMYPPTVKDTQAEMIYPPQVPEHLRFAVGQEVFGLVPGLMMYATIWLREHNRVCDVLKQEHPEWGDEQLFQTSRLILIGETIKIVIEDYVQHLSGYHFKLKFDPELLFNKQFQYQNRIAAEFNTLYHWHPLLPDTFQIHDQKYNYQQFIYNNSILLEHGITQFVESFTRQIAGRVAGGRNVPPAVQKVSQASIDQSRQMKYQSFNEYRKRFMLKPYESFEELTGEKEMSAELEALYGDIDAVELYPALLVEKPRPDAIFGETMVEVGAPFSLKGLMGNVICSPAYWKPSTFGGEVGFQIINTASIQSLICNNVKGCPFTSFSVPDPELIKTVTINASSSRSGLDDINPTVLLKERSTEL
Experimental: as §1, §2, §3
A reaction mixture containing a compound of the present invention from the Examples (50 μM) and COX-1 or COX-2 was allowed to stand at 37° C. for 10 minutes. Arachidonic acid (10 μL) was added thereto, and the resultant mixture was further allowed to stand at 37° C. for 2 minutes. […]
as §4
Antiserum (rabbit anti-PGF2α antibody, 50 μL) was added to the wells of a 96-well plate that had been coated with mouse anti-rabbit IgG. […] After keeping the plate in a dark room for 60 minutes, absorbance was measured at 405 nm. […]
as §5

Compound: CS(=O)(=O)c1ccc(-c2cc(C#N)nn2-c2ccc(F)cc2)cc1 [Compound (A)]
- IC50 ([1]; read-out: IC50 value against collagen-induced platelet aggregation): 5300 nM

Compound: NC(=O)c1ccc(-c2cc(C(=O)N3CCC(F)(F)CC3)nn2-c2cccnc2)nc1 [Example 13, 1-[5-(5-Carbamoyl-2-pyridyl)-1-(3-pyridyl)-1H-pyrazole-3-carbonyl]-4,4-difluoropiperidine]
- IC50 [2]: 130 nM
- inhibition at 50 µM (Cyclooxygenase-1 (COX-1)): 10.3%

Compound: Cc1ccc(-c2cc(C(=O)N3CCC(F)(F)CC3)nn2-c2cccnc2)nc1 [Example 15, 1-[5-(5-Methyl-2-pyridyl)-1-(3-pyridyl)-1H-pyrazole-3-carbonyl]-4,4-difluoropiperidine]
- IC50 [2]: 9 nM
- inhibition at 50 µM (Cyclooxygenase-1 (COX-1)): 8.1%

Compound: O=C(c1cc(-c2ccc(Cl)cn2)n(-c2cccnc2)n1)N1CCC(F)CC1 [Example 29, 1-[5-(5-Chloro-2-pyridyl)-1-(3-pyridyl)-1H-pyrazole-3-carbonyl]-4-fluoropiperidine]
- IC50 [2]: 95 nM
- inhibition at 50 µM (Cyclooxygenase-1 (COX-1)): -1.4%
- inhibition at 50 µM (Cyclooxygenase-2 (COX-2)): 5.3%

Compound: COC1CCN(C(=O)c2cc(-c3ccc(C)cn3)n(-c3cccnc3)n2)CC1 [Example 30, 1-[5-(5-Methyl-2-pyridyl)-1-(3-pyridyl)-1H-pyrazole-3-carbonyl]-4-methoxypiperidine]
- IC50 [2]: 120 nM
- inhibition at 50 µM (Cyclooxygenase-1 (COX-1)): -21.1%

Compound: Cc1ccc(-c2cc(C(=O)N3CCC(F)CC3)nn2-c2cccnc2)nc1 [Example 33]
- IC50 [2]: 31.3 nM
- inhibition at 50 µM (Cyclooxygenase-1 (COX-1)): -16.7%

Compound: Cc1ccc(-c2cc(C(=O)N3CCCCN3)nn2-c2cccnc2)nc1 [Example 57, 1-[5-(5-Methylpyridin-2-yl)-1-(pyridin-3-yl)-1H-pyrazole-3-carbonyl]hexahydropyridazine]
- IC50 [2]: 140 nM
- inhibition at 50 µM (Cyclooxygenase-1 (COX-1)): -17.4%

Compound: O=C(c1cc(-c2ccc(CO)cn2)n(-c2cccnc2)n1)N1CCC(F)(F)CC1 [Example 65, 1-[5-(5-Hydroxymethylpyridin-2-yl)-1-(pyridin-3-yl)-1H-pyrazole-3-carbonyl]-4,4-difluoropiperidine]
- IC50 [2]: 130 nM
- inhibition at 50 µM (Cyclooxygenase-1 (COX-1)): 5.9%

Compound: Cc1ccc(-c2cc(C(=O)N3CCN(C)CC3)nn2-c2cccnc2)nc1 [Example 67, 1-[5-(5-Methylpyridin-2-yl)-1-(pyridin-3-yl)-1H-pyrazole-3-carbonyl]-4-methylpiperazine]
- IC50 [2]: 190 nM
- inhibition at 50 µM (Cyclooxygenase-1 (COX-1)): -21%

Compound: Cn1cnc(-c2cc(C(=O)N3CCC(F)(F)CC3)nn2-c2cccnc2)c1 [Example 70, 1-[5-(1-Methyl-1H-imidazol-4-yl)-1-(pyridin-3-yl)-1H-pyrazole-3-carbonyl]-4,4-difluoropiperidine]
- IC50 [2]: 280 nM
- inhibition at 50 µM (Cyclooxygenase-1 (COX-1)): 5.5%

Compound: Cc1ccc(-c2cc(C(=O)N3CCN(C)C(=O)C3)nn2-c2cccnc2)nc1 [Example 71, 1-[5-(5-Methylpyridin-2-yl)-1-(pyridin-3-yl)-1H-pyrazole-3-carbonyl]-4-methyl-3-oxopiperazine]
- IC50 [2]: 270 nM
- inhibition at 50 µM (Cyclooxygenase-1 (COX-1)): 18.1%

Compound: C=C1CCN(C(=O)c2cc(-c3cn(C)cn3)n(-c3cccnc3)n2)CC1 [Example 73, 1-[5-(1-Methyl-1H-imidazol-4-yl)-1-(pyridin-3-yl)-1H-pyrazole-3-carbonyl]-4-methylenepiperidine]
- IC50 [2]: 78 nM
- inhibition at 50 µM (Cyclooxygenase-1 (COX-1)): 11.9%

Compound: COc1ccc(-c2cc(C(F)F)nn2-c2ccc(S(N)(=O)=O)cc2)cc1F [compound (B)]
- platelet aggregation inhibitory activity compared with inhibitory activity against COX-2 [1]: not so potent
